# According to US20100209536A1, “Methods and Kits for Use in the Treatment and Prevention of Diseases or Conditions of the Immune System or Infectious Diseases” (The Brigham and Women's Hospital, Inc., priority 2006, published 2010):
# Legend:
# Format in all cases: in vivo, human
# [1] = tested on: any wheeze in the first 2 yrs; experiment: Project Viva antioxidant study: maternal intake and any wheeze in the first 2 yrs; conditions: for Any wheeze in the first 2 yrs, Univariate Model OR (95% CI) / Any wheeze in the first 2 yrs, Multivariable Model OR (95% CI): including supplements; for Association of total maternal intake with any wheeze in univariable models: total intakes; for Any Wheeze, Foods Only OR / Any Wheeze, Supplements Only OR: univariate; for Any Wheeze, Foods Only OR: intake from foods only; for Any Wheeze, Supplements Only OR: intake from supplements only
# Description: (§1) Study subjects were enrolled in Project Viva, as described above. Recruitment and retention procedures have previously been published (Gillman et al., J. Pediatr. 144:240-245, 2004). We obtained information directly from participants and from medical records as detailed previously (Rifas-Shiman, Paediatr. Perinat. Epidemiol. 20:35-42, 2006). Data collected from interviews and questionnaires included demographics (infant gender, maternal marital status, and race), socioeconomic status (education and household income), and reproductive history (maternal gravidity, pre-pregnancy height and body mass index, and smoking). Questionnaires that inquired about infant health, feeding, and the home environment were administered when the child was 6 months, 1 year, and 2 years of age. Among 2,128 delivered infants in Project Viva, we excluded 228 participants because of missing first and second trimester diet assessment data and an additional 37 participants with a gestation of less than 34 completed weeks.
# (§2) We assessed maternal diet using semi-quantitative food-frequency questionnaires (FFQ) validated for use during pregnancy (Fawzi et al., Ann. Epidemiol. 14:754-762, 2004), and used in several of our previous studies of maternal diet and offspring outcomes (Oken et al., Am. J. Epidemiol. 160:774-783, 2004; Huh et al., Int. J. Epidemiol. 34:378-384, 2005; Gillman et al., Circulation 110:1990-1995, 2004). As noted above, the FFQ used at the 1st visit reflected intakes in the 1st trimester; the time referent was “during this pregnancy,” that is from the date of the last menstrual period until the assessment, at an average of about 10 weeks gestation. To assess vitamin and supplement intake during the 1st trimester, we administered a separate interview that queried dose, duration, and brand/type of multivitamin, prescribed prenatal vitamins, and supplements. Also as noted above, the FFQ used at the 2nd visit (26 to 28 weeks of gestation) reflected intakes during the 2nd trimester; the time referent was “during the past 3 months.” The 2nd trimester instrument was the same as that for the 1st trimester except that we assessed use of vitamins/supplements as part of the self-completed FFQ.
# (§3) To calculate intake of nutrients, we again used the Harvard nutrient composition database, which contains food composition values from the U.S. Department of Agriculture, supplemented by other data sources (U.S. Department of Agriculture ARS. USDA National Nutrient Database for Standard Reference, Release 14, 5R14; 2001). All nutrients were adjusted for total energy intake using the nutrient residuals method (Willett, Am. J. Clin. Nutr. 45:354-360, 1987). Mean nutrient intakes from the 1st and 2nd trimesters were used as the exposure in the analyses. If a participant only completed one FFQ, then nutrients calculated from that questionnaire were taken as the exposure of interest. One thousand one hundred and thirty-five (88.0%) of the 1,290 participants completed both FFQs, 96 (7.4%) completed the first trimester FFQ only, and 59 (4.6%) completed the second trimester FFQ only.
# (§4) We ascertained the wheeze outcomes from questions from the First Year and Second Year Questionnaires: “since your child was born/since your child was […], has he/she ever had wheezing (or whistiling in the chest)?” “Any wheeze” was defined as a positive response to the question at either the first or second year questionnaire. “Recurrent wheeze” was defined as positive responses to the questions in both the first and second year questionnaires. […] “Respiratory infections” was defined as positive responses to one of three questions: “since your child was born/12 months old, have you been told by a health care professional (such as a doctor, physician assistant, or nurse practitioner) that your child has: (a) bronchiolitis; (b) pneumonia; (c) bronchitis, croup, or any other respiratory infection?” on either the first or second year questionnaires. […]
# [2] = tested on: recurrent wheeze in the first 2 yrs; experiment: Project Viva antioxidant study: maternal intake and recurrent wheeze in the first 2 yrs; conditions: for Recurrent wheeze in the first 2 yrs, Multivariable Model OR (95% CI) / Recurrent wheeze in the first 2 yrs, Univariate Model OR (95% CI): including supplements; for Recurrent Wheeze, Foods Only OR / Recurrent Wheeze, Supplements Only OR: univariate; for Recurrent Wheeze, Foods Only OR: intake from foods only; for Recurrent Wheeze, Supplements Only OR: intake from supplements only
# Description: as §1, §2, §3, §4
# [3] = tested on: respiratory infections in the 2-year old children; experiment: Project Viva antioxidant study: maternal intake and respiratory infections in 2-year old children
# Description: as §1
# We assessed maternal diet using semi-quantitative food-frequency questionnaires (FFQ) validated for use during pregnancy (Fawzi et al., Ann. Epidemiol. 14:754-762, 2004), and used in several of our previous studies of maternal diet and offspring outcomes (Oken et al., Am. J. Epidemiol. 160:774-783, 2004; Huh et al., Int. J. Epidemiol. 34:378-384, 2005; Gillman et al., Circulation 110:1990-1995, 2004). As noted above, the FFQ used at the 1st visit reflected intakes in the 1st trimester; the time referent was “during this pregnancy,” that is from the date of the last menstrual period until the assessment, at an average of about 10 weeks gestation. […] Also as noted above, the FFQ used at the 2nd visit (26 to 28 weeks of gestation) reflected intakes during the 2nd trimester; the time referent was “during the past 3 months.” The 2nd trimester instrument was the same as that for the 1st trimester except that we assessed use of vitamins/supplements as part of the self-completed FFQ. […]
# [4] = 2nd vs 1st (lowest) quartile of maternal intake, calorie adjusted, n = 1,161
# [5] = 2nd vs 1st (lowest) quartile of maternal intake
# [6] = 3rd vs 1st (lowest) quartile of maternal intake
# [7] = 4th (highest) vs 1st (lowest) quartile of maternal intake
# [8] = 2nd vs 1st (lowest) quartile of maternal intake, n = 1,038
# [9] = 4th (highest) vs 1st (lowest) quartile of maternal intake, listed as vitamin E
# [10] = 4th (highest) vs 1st (lowest) quartile
compound,measurement,setting,value
"CC(C)=CCC/C(C)=C/C=C/C(C)=C/C=C/C(C)=C/C=C/C=C(C)/C=C/C=C(C)/C=C/C=C(\C)CCC=C(C)C [Lycopene, lycopene]","Any wheeze in the first 2 yrs, Univariate Model OR (95% CI)",[1]; [4],"1.27 (0.90, 1.80)"
same,"Any wheeze in the first 2 yrs, Multivariable Model OR (95% CI)",[1]; [5],"1.50 (1.02, 2.19)"
same,"Any wheeze in the first 2 yrs, Multivariable Model OR (95% CI)",[1]; [6],"1.67 (1.14, 2.45)"
same,"Any wheeze in the first 2 yrs, Univariate Model OR (95% CI)",[1]; [6],"1.26 (0.90, 1.79)"
same,"Any wheeze in the first 2 yrs, Multivariable Model OR (95% CI)",[1]; [7],"0.96 (0.64, 1.42)"
same,"Any wheeze in the first 2 yrs, Univariate Model OR (95% CI)",[1]; [7],"0.83 (0.58, 1.19)"
same,"Recurrent wheeze in the first 2 yrs, Multivariable Model OR (95% CI)",[2]; [5],"1.06 (0.62, 1.83)"
same,"Recurrent wheeze in the first 2 yrs, Univariate Model OR (95% CI)",[2]; [8],"0.88 (0.53, 1.46)"
same,"Recurrent wheeze in the first 2 yrs, Multivariable Model OR (95% CI)",[2]; [6],"1.40 (0.82, 2.40)"
same,"Recurrent wheeze in the first 2 yrs, Univariate Model OR (95% CI)",[2]; [6],"1.01 (0.62, 1.64)"
same,"Recurrent wheeze in the first 2 yrs, Multivariable Model OR (95% CI)",[2]; [7],"0.75 (0.42, 1.33)"
same,"Recurrent wheeze in the first 2 yrs, Univariate Model OR (95% CI)",[2]; [7],"0.70 (0.42, 1.17)"
"Nc1nc2ncc(CNc3ccc(C(=O)N[C@@H](CCC(=O)O)C(=O)O)cc3)nc2c(=O)[nH]1 [Folic acid, folic acid]","Any wheeze in the first 2 yrs, Univariate Model OR (95% CI)",[1]; [4],"0.94 (0.67, 1.32)"
same,"Any wheeze in the first 2 yrs, Multivariable Model OR (95% CI)",[1]; [5],"1.13 (0.78, 1.64)"
same,"Any wheeze in the first 2 yrs, Multivariable Model OR (95% CI)",[1]; [6],"0.79 (0.54, 1.16)"
same,"Any wheeze in the first 2 yrs, Univariate Model OR (95% CI)",[1]; [6],"0.63 (0.44, 0.89)^5"
same,"Any wheeze in the first 2 yrs, Multivariable Model OR (95% CI)",[1]; [7],"0.89 (0.60, 1.31)"
same,"Any wheeze in the first 2 yrs, Univariate Model OR (95% CI)",[1]; [7],"0.64 (0.45, 0.91)^5"
same,Association of total maternal intake with any wheeze in univariable models,[1],associated with lower risks
same,"Recurrent wheeze in the first 2 yrs, Multivariable Model OR (95% CI)",[2]; [5],"0.93 (0.55, 1.58)"
same,"Recurrent wheeze in the first 2 yrs, Univariate Model OR (95% CI)",[2]; [8],"0.77 (0.48, 1.24)"
same,"Recurrent wheeze in the first 2 yrs, Multivariable Model OR (95% CI)",[2]; [6],"0.75 (0.43, 1.28)"
same,"Recurrent wheeze in the first 2 yrs, Univariate Model OR (95% CI)",[2]; [6],"0.58 (0.35, 0.95)^5"
same,"Recurrent wheeze in the first 2 yrs, Multivariable Model OR (95% CI)",[2]; [7],"0.68(0.38, 1.22)"
same,"Recurrent wheeze in the first 2 yrs, Univariate Model OR (95% CI)",[2]; [7],"0.46 (0.27, 0.78)^5"
vitamin E,"Any wheeze in the first 2 yrs, Univariate Model OR (95% CI)",[1]; [4],"0.71 (0.51, 1.01)"
same,"Any wheeze in the first 2 yrs, Multivariable Model OR (95% CI)",[1]; [5],"0.90 (0.62, 1.31)"
same,"Any Wheeze, Foods Only OR",[1]; 2nd vs 1st (lowest) quartile,0.75
same,"Any Wheeze, Supplements Only OR",[1]; 2nd vs 1st (lowest) quartile,0.86
same,"Any wheeze in the first 2 yrs, Multivariable Model OR (95% CI)",[1]; [6],"0.84 (0.58, 1.22)"
same,"Any wheeze in the first 2 yrs, Univariate Model OR (95% CI)",[1]; [6],"0.67 (0.48, 0.95)^5"
same,"Any Wheeze, Foods Only OR",[1]; 3rd vs 1st (lowest) quartile,0.67
same,"Any Wheeze, Supplements Only OR",[1]; 3rd vs 1st (lowest) quartile,0.70
same,"Any wheeze in the first 2 yrs, Multivariable Model OR (95% CI)",[1]; [7],"0.70 (0.48, 1.03)"
same,"Any wheeze in the first 2 yrs, Univariate Model OR (95% CI)",[1]; [7],"0.52 (0.36, 0.74)^5"
same,"Any wheeze in the first 2 yrs, Multivariable Model OR (95% CI)",[1]; [9],0.70
same,"Any Wheeze, Foods Only OR",[1]; [10],0.69
same,"Any Wheeze, Supplements Only OR",[1]; [10],0.63
same,Association of total maternal intake with any wheeze in univariable models,[1],associated with lower risks
same,"Recurrent wheeze in the first 2 yrs, Multivariable Model OR (95% CI)",[2]; [5],"0.79 (0.47, 1.34)"
same,"Recurrent wheeze in the first 2 yrs, Univariate Model OR (95% CI)",[2]; [8],"0.60 (0.37, 0.98)"
same,"Recurrent Wheeze, Foods Only OR",[2]; 2nd vs 1st (lowest) quartile,0.66
same,"Recurrent Wheeze, Supplements Only OR",[2]; 2nd vs 1st (lowest) quartile,0.83
same,"Recurrent wheeze in the first 2 yrs, Multivariable Model OR (95% CI)",[2]; [6],"0.90 (0.54, 1.52)"
same,"Recurrent wheeze in the first 2 yrs, Univariate Model OR (95% CI)",[2]; [6],"0.68 (0.43, 1.10)"
same,"Recurrent Wheeze, Foods Only OR",[2]; 3rd vs 1st (lowest) quartile,0.58
same,"Recurrent Wheeze, Supplements Only OR",[2]; 3rd vs 1st (lowest) quartile,0.50
same,"Recurrent wheeze in the first 2 yrs, Multivariable Model OR (95% CI)",[2]; [7],"0.49 (0.27, 0.90)^5"
same,"Recurrent wheeze in the first 2 yrs, Univariate Model OR (95% CI)",[2]; [7],"0.36 (0.20, 0.62)^5"
same,"Recurrent wheeze in the first 2 yrs, Multivariable Model OR (95% CI)",[2]; [9],0.49
same,"Recurrent Wheeze, Foods Only OR",[2]; [10],0.61
same,"Recurrent Wheeze, Supplements Only OR",[2]; [10],0.56
same,Association of total maternal intake with respiratory infections in the children,[3],not associated
